Measurements taken from US20140349948A1, “Treatment of Chronic Constipation” (Forest Laboratories Holdings Limited, priority 2009, published 2014).
Marks after values point to notes of the source that are not given here. Residues, ends and D or L forms follow the SMILES beside them.

Legend:
[1] = system: patients with chronic constipation; experiment: Trial 2 four-week Randomized Withdrawal Period; format: in vivo, human; parameters: Straining, Change From Baseline, Mean / Abdominal Discomfort, Change From Baseline, Mean / Bloating, Change From Baseline, Mean / Constipation Severity, Change From Baseline, Mean / Global Relief of Constipation Symptoms, Change From Baseline, Mean: scale not given here; conditions: for Abdominal Discomfort, Change From Baseline, Mean / Bloating, Change From Baseline, Mean / Constipation Severity, Change From Baseline, Mean / Global Relief of Constipation Symptoms, Change From Baseline, Mean / Stool Consistency (BSFS), Change From Baseline, Mean / Straining, Change From Baseline, Mean / Weekly CSBM Rate, Change From Baseline, Mean / Weekly SBM Rate, Change From Baseline, Mean: RW Period
Protocol: (§1) Trial 2 was conducted in 642 patients and was identical to Trial 1 except that Trial 2 also included a four-week Randomized Withdrawal Period, defined below. During the two-week pretreatment (baseline) period, 68 percent of patients in Trial 2 had no CSBMs.
The Randomized Withdrawal (RW) Period is defined as the 4 weeks immediately following the Treatment Period. The beginning of the RW Period coincides with the end of the Treatment Period. Patients who were randomized to linaclotide in the Treatment Period and complete the 12 weeks of the Treatment Period were randomized to treatment with linaclotide or placebo in the RW Period. Patients who were randomized to placebo in the Treatment Period and complete the 12 weeks of the Treatment Period received 133 μg or 266 μg linaclotide in the RW Period.

[2] = system: patients with chronic constipation; experiment: Trials 1 and 2 pooled; format: in vivo, human; conditions: 133 μg, Pooled (n = 430)
Protocol: Linaclotide Capsules from Example 4 were administered in multicenter, randomized, double-blind, placebo-controlled trials.
Trial 1 was conducted in 630 patients meeting modified Rome II criteria for chronic constipation. The trial included a two-week pretreatment baseline period and a 12-week treatment period. A diagram of the study design for Trial 2 is given in FIG. 1, which is substantially similar to Trial 1 except for the addition of a Randomized Withdrawal period in Trial 2 as described below.
as §1

[3] = 5-point scale: 1 = none, 5 = very severe

## C[C@@H]1NC(=O)[C@@H]2CCCN2C(=O)[C@H](CC(N)=O)NC(=O)[C@@H]2CSSC[C@H](N)C(=O)N[C@H]3CSSC[C@H](NC1=O)C(=O)N[C@@H]([C@@H](C)O)C(=O)NCC(=O)N[C@H](C(=O)N[C@@H](Cc1ccc(O)cc1)C(=O)O)CSSC[C@H](NC(=O)[C@H](Cc1ccc(O)cc1)NC(=O)[C@H](CCC(=O)O)NC3=O)C(=O)N2 [Linaclotide, Cys1 Cys2 Glu3 Tyr4 Cys5 Cys6 Asn7 Pro8 Ala9 Cys10 Thr11 Gly12 Cys13 Tyr14] (HELM PEPTIDE1{C.C.E.Y.C.C.N.P.A.C.T.G.C.Y}$PEPTIDE1,PEPTIDE1,1:R3-6:R3|PEPTIDE1,PEPTIDE1,2:R3-10:R3|PEPTIDE1,PEPTIDE1,5:R3-13:R3$$$V2.0)
[1]; 133 μg/133 μg (n = 90)
  Abdominal Discomfort, Change From Baseline, Mean: −0.5
  Bloating, Change From Baseline, Mean: −0.4
  Constipation Severity, Change From Baseline, Mean: −0.9
  Global Relief of Constipation Symptoms, Change From Baseline, Mean: −1.3
  Stool Consistency (BSFS), Change From Baseline, Mean: 1.9
  Straining, Change From Baseline, Mean: −1.1
  Weekly CSBM Rate, Change From Baseline, Mean: 2.1
  Weekly SBM Rate, Change From Baseline, Mean: 3.0
[1]; 133 μg/Placebo (n = 95)
  Abdominal Discomfort, Change From Baseline, Mean: −0.4
  Bloating, Change From Baseline, Mean: −0.4
  Constipation Severity, Change From Baseline, Mean: −0.5
  Global Relief of Constipation Symptoms, Change From Baseline, Mean: −0.7
  Stool Consistency (BSFS), Change From Baseline, Mean: 1.0
  Straining, Change From Baseline, Mean: −0.8
  Weekly CSBM Rate, Change From Baseline, Mean: 1.0
  Weekly SBM Rate, Change From Baseline, Mean: 1.2
[1]; 266 μg/266 μg (n = 90)
  Abdominal Discomfort, Change From Baseline, Mean: −0.7
  Bloating, Change From Baseline, Mean: −0.6
  Constipation Severity, Change From Baseline, Mean: −0.9
  Global Relief of Constipation Symptoms, Change From Baseline, Mean: −1.3
  Stool Consistency (BSFS), Change From Baseline, Mean: 1.6
  Straining, Change From Baseline, Mean: −1.3
  Weekly CSBM Rate, Change From Baseline, Mean: 2.2
  Weekly SBM Rate, Change From Baseline, Mean: 2.5
[1]; 266 μg/Placebo (n = 86)
  Abdominal Discomfort, Change From Baseline, Mean: −0.4
  Bloating, Change From Baseline, Mean: −0.2
  Constipation Severity, Change From Baseline, Mean: −0.5
  Global Relief of Constipation Symptoms, Change From Baseline, Mean: −0.8
  Stool Consistency (BSFS), Change From Baseline, Mean: 0.8
  Straining, Change From Baseline, Mean: −0.8
  Weekly CSBM Rate, Change From Baseline, Mean: 0.9
  Weekly SBM Rate, Change From Baseline, Mean: 1.3
[1]; Placebo/266 μg (n = 177)
  Abdominal Discomfort, Change From Baseline, Mean: −0.5
  Bloating, Change From Baseline, Mean: −0.5
  Constipation Severity, Change From Baseline, Mean: −1.0
  Global Relief of Constipation Symptoms, Change From Baseline, Mean: −1.3
  Stool Consistency (BSFS), Change From Baseline, Mean: 1.9
  Straining, Change From Baseline, Mean: −1.2
  Weekly CSBM Rate, Change From Baseline, Mean: 2.1
  Weekly SBM Rate, Change From Baseline, Mean: 3.7
[1]; Randomized Withdrawal Period
  bowel and abdominal symptoms and global assessments in patients continuing treatment: sustained improvements
  frequencies of adverse events following discontinuing of treatment: no evidence of rebound of CC symptoms or increase in the frequencies of adverse events
  rebound of CC symptoms following discontinuing of treatment: no evidence of rebound of CC symptoms
[1]; Randomized Withdrawal Period, placebo then linaclotide
  CC symptoms in patients initiating linaclotide treatment: marked improvement
[1]; Randomized Withdrawal Period, versus those receiving linaclotide during first 4 weeks of Treatment Period
  incidence of adverse events in patients initiating linaclotide treatment: similar
[1]; linaclotide for 12 weeks, re-randomized to placebo during 4 week withdrawal period
  CSBM and SBM rates versus baseline rates after withdrawal: no decreases in CSBM (FIG. 2) or SBM rates (FIG. 3) below the baseline rates
[2]
  CSBM rate, Week 1 Mean Change from Baseline: 2.02**
  SBM rate, Week 1 Mean Change from Baseline: 3.96***
[2]; 5-point scale: 1 = none, 5 = an extreme amount
  Straining, Week 1 Mean Change from Baseline: −1.02***
[2]; [3]
  Abdominal discomfort, Week 1 Mean Change from Baseline: −0.26***
  Bloating, Week 1 Mean Change from Baseline: −0.31***
  Constipation severity, Week 1 Mean Change from Baseline: −0.82***
